Converted amounts (≈) assume the structure as drawn. Read-outs that look alike come from different tables or passages of the source.
Columns and labels:
Format in all cases: cell-based
[1] = system: HIV-1(IIIB); assay: Anti-HIV-1 activity in CD4+ T-lymphocyte CEM cell cultures; conditions: Human immunodeficiency virus 1, CCRF-CEM, virus-induced cytopathicity
Excerpt: Human CD4 ^+ T-lymphocyte CEM cell cultures were inoculated with HIV-1 and HIV-2 and exposed to adefovir, tenofovir, or PMEO-DAPym. […]

[2] = system: HSV-1 (KOS and clinical isolates); assay: microbe, parasite or virus in culture; conditions: Human alphaherpesvirus 1, HEL
Procedure: (§1) Figure 2 Antiherpetic activity of test compounds in cell culture. Confluent HEL cell cultures were exposed to 100 TCID50 of clinical virus isolates [wild-type HSV-1 (panel A), wild-type HSV-2 (panel B), TK^− HSV-1 (panel C) and TK^− HSV-2 (panel D)] in the presence of drugs at different concentrations and incubated for 3 days at 37°C. […] Data shown are the means of at least two independent experiments.

[3] = system: HSV-2 (G and clinical isolates); assay: microbe, parasite or virus in culture; conditions: Human alphaherpesvirus 2, HEL
Procedure: as §1

[4] = system: HSV-1 and HSV-2 strains; assay: HSV cytopathicity assay in HEL cell cultures, HSV-1 and HSV-2 stated together
Procedure: Figure 2 Antiherpetic activity of test compounds in cell culture. Confluent HEL cell cultures were exposed to 100 TCID50 of clinical virus isolates [wild-type HSV-1 (panel A), wild-type HSV-2 (panel B), TK^− HSV-1 (panel C) and TK^− HSV-2 (panel D)] in the presence of drugs at different concentrations and incubated for 3 days at 37°C. Then, the cytopathicity was determined microscopically and the EC50 values determined. ^aEC50, 50% effective concentration or compound concentration required to reduce virus-induced cytopathicity (CPE) by 50%. Data shown are the means of at least two independent experiments. The HSV-1, HSV-2, HSV-1 TK^−, and HSV-2 TK^− clinical isolates have been described in reference 19, including the nature of the mutations in the TK gene of the acyclovir-resistant virus strains.

[5] = system: HSV-2 (G); assay: HSV-2 infection of primary monocyte/macrophage (M/M) cultures; conditions: for inhibition at 0.0032 µg/mL / inhibition at 0.016 µg/mL / inhibition at 0.08 µg/mL / inhibition at 0.4 µg/mL / inhibition at 2 µg/mL / inhibition at 10 µg/mL / inhibition at 50 µg/mL: Human alphaherpesvirus 2, 144 h, day 6, read-out: Inhibition of viral replication (% to control); for EC50: Human alphaherpesvirus 2; for inhibition of HSV-2 replication: 2- to 10-µg/ml
Procedure: We obtained human PBMC from the blood of healthy seronegative donors using Ficoll–Hypaque density gradient centrifugation. The PBMC were resuspended in RPMI 1640 medium supplemented with 20% heat-inactivated serum and then seeded into 48-well plates (1.8×10^6 cells/well). M/M were separated by adherence onto plastic. After 5 days, non-adherent cells were carefully removed by repeated gentle washings with warm medium, and adherent M/M were cultured for an additional 3 days to mature and to form a monolayer. M/M were estimated to be 10^5 cells/well at the time of infection. […]. Similarly, macrophage cultures were treated with the same concentrations of adefovir and tenofovir. Macrophage cultures were then infected with HSV-2 (G) (100 TCID50) in the presence of the compounds. After 2 h of adsorption, the cultures were extensively washed to remove any residual virus particles. Fresh complete medium and compounds, at the established concentrations, were then added to the cultures. Appropriate positive (infected but not treated) and mock-infected negative (uninfected and untreated) M/M controls were run for each experiment as well. All assays were performed in triplicate. […] We determined the amount of infectious virus in the supernatants 5–6 days after infection using the cytopathic effect assay. Tenfold serially diluted supernatants were added to confluent monolayers of Vero cells in 96-well plates (100 µl/well, 6 parallel wells). […] The titers of virus produced were calculated according to the Reed and Muench method and expressed as 50% tissue culture infective dose per mL (TCID50/mL).

[6] = HSV-1, average of six TK-deficient clinical isolates
[7] = HSV-1, average of six clinical isolates
[8] = HSV-2, average of seven TK-deficient clinical isolates
[9] = HSV-2, average of seven clinical isolates
[10] = thirteen clinical wild-type HSV-1 and HSV-2 isolates, read-out: average EC50
[11] = wild-type laboratory HSV-1 and HSV-2 strains, range, read-out: EC50
[12] = HSV-2 (G), human monocyte/macrophages

SMILES | EC50 [1] [mg/L] | EC50 ([2]; HSV-1 (KOS)) [mg/L] | EC50 [2, 6] [mg/L] | EC50 [2, 7] [mg/L] | EC50 ([3]; HSV-2 (G)) [mg/L] | EC50 [3, 8] [mg/L] | EC50 [3, 9] [mg/L] | EC50 [4, 10] [mg/L] | EC50 [4, 11] [mg/L] | Virus production by HSV2-infected macrophages 6 days after infection (CPE reduction) ([5]; 0.0032 µg/ml) | Cytopathicity (CPE) on macrophages 6 days after infection % CPE ([5]; 0.016 µg/ml) [%] | Virus production by HSV2-infected macrophages 6 days after infection (CPE reduction) ([5]; 0.016 µg/ml) | Cytopathicity (CPE) on macrophages 6 days after infection % CPE ([5]; 0.08 µg/ml) [%] | Virus production by HSV2-infected macrophages 6 days after infection (CPE reduction) ([5]; 0.08 µg/ml) | Virus production by HSV2-infected macrophages 6 days after infection (CPE reduction) ([5]; 0.4 µg/ml) | Virus production by HSV2-infected macrophages 6 days after infection (CPE reduction) ([5]; 10 µg/ml) | Virus production by HSV2-infected macrophages 6 days after infection (CPE reduction) ([5]; 50 µg/ml) | inhibition at 0.0032 µg/mL ([5]; 0.0032 µg/ml, M/M) [%] | inhibition at 0.016 µg/mL ([5]; 0.016 µg/ml, M/M) [%] | inhibition at 0.08 µg/mL ([5]; 0.08 µg/ml, M/M) [%] | further results
Nc1ncnc2c1ncn2CCOCP(=O)(O)O [Adefovir, 9-(2-phosphonylmethoxyethyl)adenine] | 0.96 ± 0.24 (≈ 3.51 µM) | 4.7 ± 1.8 (≈ 17.2 µM) | 7 ± 1.4 (≈ 25.6 µM) | 6.2 ± 1 (≈ 22.7 µM) | 6.3 ± 2.6 (≈ 23.1 µM) | 7.5 ± 1.5 (≈ 27.5 µM) | 5.9 ± 0.9 (≈ 21.6 µM) | ~6 (≈ 22 µM) | 2.6 to 6.3 (≈ 9.52 to 23.1 µM) | 1.6×10^4 TCID50/ml | 60 | 7.2×10^3 TCID50/ml | 40 | 1.8×10^3 TCID50/ml | 8×10^2 TCID50/ml | No virus | No virus | < 0 | 49 | 87 | Virus production by HSV2-infected macrophages 6 days after infection (CPE reduction) ([5]; 2 µg/ml): No virus; inhibition at 0.4 µg/mL ([5]; 0.4 µg/ml, M/M): 94%; inhibition at 2 µg/mL ([5]; 2 µg/ml, M/M): 100%; inhibition at 10 µg/mL ([5]; 10 µg/ml, M/M): 100%; inhibition at 50 µg/mL ([5]; 50 µg/ml, M/M): 100%; EC50 [5, 12]: 0.016 ± 0.004 mg/L (≈ 0.0586 µM); EC50 ([5]; M/M, range over the compounds): 0.02 to 0.2 mg/L (≈ 0.0732 to 0.732 µM); inhibition of HSV-2 replication ([5]; M/M): virtually completely inhibited
Nc1cc(OCCOCP(=O)(O)O)nc(N)n1 [PMEO-DAPym, 6-phosphonylmethoxyethoxy-2,4-diaminopyrimidine] | 0.9 ± 0.4 (≈ 3.41 µM) | 2.6 ± 1.2 (≈ 9.84 µM) | 2.4 ± 0.6 (≈ 9.08 µM) | 2 ± 0.5 (≈ 7.57 µM) | 4.4 ± 2.4 (≈ 16.7 µM) | 2.4 ± 0.4 (≈ 9.08 µM) | 2 ± 0.4 (≈ 7.57 µM) | ~2 (≈ 7.57 µM) | 2.6 to 6.3 (≈ 9.84 to 23.8 µM) | 1.5×10^4 TCID50/ml | 80 | 1.35×10^4 TCID50/ml | 55 | 7.5×10^3 TCID50/ml | 9.5×10^2 TCID50/ml | No virus | No virus | < 0 | 3.5 | 46 | EC50 ([4]; TK− HSV isolates, read-out: average EC50): 2.4 mg/L (≈ 9.08 µM); Virus production by HSV2-infected macrophages 6 days after infection (CPE reduction) ([5]; 2 µg/ml): 2.26×10^2 TCID50/ml; Cytopathicity (CPE) on macrophages 6 days after infection % CPE ([5]; 10 µg/ml): 0–5%; inhibition at 0.4 µg/mL ([5]; 0.4 µg/ml, M/M): 93%; inhibition at 2 µg/mL ([5]; 2 µg/ml, M/M): 98 to 100%; inhibition at 10 µg/mL ([5]; 10 µg/ml, M/M): 100%; inhibition at 50 µg/mL ([5]; 50 µg/ml, M/M): 100%; EC50 [5, 12]: 0.09 ± 0.03 mg/L (≈ 0.341 µM); inhibition of HSV-2 replication ([5]; M/M): virtually completely inhibited
C[C@H](Cn1cnc2c(N)ncnc21)OCP(=O)(O)O [Tenofovir, 9-(2-phosphonylmethoxypropyl)adenine] | 0.36 ± 0.24 (≈ 1.25 µM) | 105 ± 20 (≈ 366 µM) | 151 ± 19 (≈ 526 µM) | 125 ± 12 (≈ 435 µM) | 122 ± 51 (≈ 425 µM) | 121 ± 15 (≈ 421 µM) | 139 ± 11 (≈ 484 µM) | ~130 (≈ 453 µM) | 105 to 122 (≈ 366 to 425 µM) | 1.2×10^4 TCID50/ml | 75 | 1.3×10^4 TCID50/ml | 60 | 9×10^3 TCID50/ml | 1.9×10^3 TCID50/ml | No virus | No virus | 14 | 7 | 36 | Cytopathicity (CPE) on macrophages 6 days after infection % CPE ([5]; 10 µg/ml): 10%; inhibition at 0.4 µg/mL ([5]; 0.4 µg/ml, M/M): 86%; inhibition at 2 µg/mL ([5]; 2 µg/ml, M/M): 98%; inhibition at 10 µg/mL ([5]; 10 µg/ml, M/M): 100%; inhibition at 50 µg/mL ([5]; 50 µg/ml, M/M): 100%; EC50 [5, 12]: 0.2 ± 0.06 mg/L (≈ 0.696 µM); inhibition of HSV-2 replication ([5]; M/M): virtually completely inhibited

From PMC3723632, “A Multi-targeted Drug Candidate with Dual Anti-HIV and Anti-HSV Activity” (PLoS Pathogens, 2013)
